Test results: patent publication US9938525B2, “Compositions and methods for selective delivery of oligonucleotide molecules to cell types” (nLife Therapeutics, S.L., priority 2012, dated 2018)

Columns and labels:
human 5HT1A receptor = molecular target: T1, human 5HT1A receptor (Homo sapiens, UniProt P08908); experiment: Binding to 5HT1A: displacement of 3H-8-OH-DPAT in CHO cells overexpressing human 5HT1A receptor
T1 construct: expressed in transfected cells; host or cells: CHO
T1 sequence (P08908 1-422): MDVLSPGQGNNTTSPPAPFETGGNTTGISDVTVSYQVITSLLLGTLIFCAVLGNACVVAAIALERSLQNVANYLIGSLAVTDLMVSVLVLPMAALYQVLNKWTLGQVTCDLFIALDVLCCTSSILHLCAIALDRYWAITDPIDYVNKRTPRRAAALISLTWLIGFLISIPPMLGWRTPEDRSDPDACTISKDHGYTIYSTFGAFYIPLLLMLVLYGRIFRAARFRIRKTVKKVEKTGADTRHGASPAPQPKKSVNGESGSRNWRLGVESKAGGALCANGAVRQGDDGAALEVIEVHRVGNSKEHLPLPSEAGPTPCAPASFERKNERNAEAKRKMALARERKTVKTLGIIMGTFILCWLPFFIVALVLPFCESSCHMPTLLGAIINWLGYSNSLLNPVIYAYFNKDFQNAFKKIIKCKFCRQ
Experimental: 10 ug of protein per well preincubated 15 min and incubated 60 min RT.

5HT3 = molecular target: T2, 5HT3 (Homo sapiens, UniProt P46098); experiment: Binding to 5HT3: displacement of 3H-GR65630 in HEK-5HT3; conditions: displacement of 3H-GR65630 (0.5 nM), HEK-5HT3, 3 ug of protein per well
T2 construct: expressed in transfected cells; host or cells: HEK (HEK-5HT3)
T2 sequence (P46098 24-478): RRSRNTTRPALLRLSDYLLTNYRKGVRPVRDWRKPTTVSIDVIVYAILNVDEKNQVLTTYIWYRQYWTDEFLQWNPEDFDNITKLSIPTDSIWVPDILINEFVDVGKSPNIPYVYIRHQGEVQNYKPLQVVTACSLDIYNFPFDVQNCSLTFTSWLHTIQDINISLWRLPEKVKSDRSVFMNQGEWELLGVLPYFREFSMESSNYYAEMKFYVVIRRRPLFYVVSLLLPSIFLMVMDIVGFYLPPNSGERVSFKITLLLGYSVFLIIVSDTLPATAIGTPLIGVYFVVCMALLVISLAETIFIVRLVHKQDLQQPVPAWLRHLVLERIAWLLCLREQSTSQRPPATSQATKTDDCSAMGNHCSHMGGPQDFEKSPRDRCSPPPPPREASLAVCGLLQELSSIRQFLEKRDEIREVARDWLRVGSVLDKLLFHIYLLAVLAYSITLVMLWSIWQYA
Experimental: FIG. 6. Binding of 1319 to 5HT3. Displacement of 3H-GR65630 (0.5 nM). Data are presented as mean±SD, n=4 from one experiment. Kd of GR65630 was determined from a saturation assay.
Displacement of 3H-GR65630 (0.5 nM) with increasing concentrations of 1319 (from 0.1 nM to 10 uM), Lerisetron-C6-acyl and not derivatized Lerisetron (from 0.1 nM to 30 uM), in HEK-5HT3: 3 ug of protein per well is shown in Table 11.

Ataxin-I mRNA = experiment: Knockdown of Ataxin I in Purkinje cells of the cerebellum (in situ hybridization, optical density); assay type: in vivo, mouse; conditions: C57/B16 mice, intranasal 4 mg/kg/day for four consecutive days, 24 hours after last administration; ± s.e.m.
Description: FIG. 5. Microphotographs of sagittal cerebellum sections labeled with a probe for Ataxin-1. A) and B) Arrows indicate the Purkinje cells layer, ML: molecular layer, GL: granular layer. A: example of animal treated with PBS, B: example of animal treated with 5-nonyloxytryptamine oxalate conjugated to a siRNA against mRNA for Ataxin-I (NP-1297). C: Quantification of optical density (ImageJ) in the Purkinje cells layer in arbitrary units (O.D. (a.u.)) normalized against PBS showing a significant decrease (48%±5 s.e.m.) in animals treated with NP-1297 (t test, *p<0.02).
5-HT1B receptors are expressed in the Purkinje cells of the cerebellum and using the agonist 5-nonyloxytryptamine oxalate for these receptors, conjugated to a siRNA against mRNA for Ataxin-I, we knockdown this protein only in Purkinje cells. Ataxin-1-siRNA sequence (Lee et al., Nat Neurosci 11, 1137-1139 (2008))
For this, five C57/B16 wild type mice were intranasally administered with the conjugated molecule at a concentration of 4 mg/kg/day for four consecutive days and five animals of the same strain were treated with PBS as a control; 24 hours after last administration animals were sacrificed and the brain was processed for in situ hybridization with colorimetric detection. A probe 45 nucleotides long complementary to mouse Ataxin-I mRNA and labeled with digoxigenin at both ends (5′ and 3′) was used. […]

Compound: Nc1ccc(CCN2CCN(c3cccc(C(F)(F)F)c3)CC2)cc1 [LY-165,163, 1-[2-(4-aminophenyl)ethyl]-4-(3-trifluoromethylphenyl)-piperazine]
- IC50 (human 5HT1A receptor): 1.1 nM

Compound: c1ccc(Cn2c(N3CCNCC3)nc3ccccc32)cc1 [Lerisetron, 1-benzyl-2-piperazin-1-yl-1H-benzimidazole]
- IC50 (5HT3): 7 nM

Compound: NP-1297: 5-nonyloxytryptamine oxalate conjugated to a siRNA against mRNA for Ataxin-I (SEQ ID NO: 9/10) (chain 1 GAUCUAACGUGGGCAAGUATT; chain 2 UACUUGCCCACGUUAGAUCTT; 5-nonyloxytryptamine conjugated, attachment position not given here)
- Decrease of optical density (Ataxin-1 probe) in the Purkinje cells layer normalized against PBS (Ataxin-I mRNA): 48%±5
